Results reported in patent US20190280220A1, “METAL COMPLEXES” (Merck Patent GmbH, priority 2016, published 2019).

Assay: Comparison of solubility in organic solvents at room temperature
Format: physicochemical
Text: The compounds of the invention have very good solubility in nonpolar solvents (aromatics, alkylaromatics, cyclohexane) and dipolar aprotic solvents (ketones, ethers, esters, amides, sulfones, sulfoxides etc., such as acetone, butanone, cyclohexanone, di-n-butyl ether, THF, dioxane, 3-phenoxytoluene, anisole, ethyl acetate, butyl acetate, hexyl acetate, methyl benzoate, DMF, DMAC, NMP, DMSO, dimethyl sulfone, sulfolane, etc.) and mixtures thereof, and form solutions that are stable for a long period of time. Preferred concentrations are 5-500 mg/ml, more preferably 20-200 mg/ml.

| SMILES | Solubility, 3-Phenoxytoluene | Solubility, DMF | Solubility, Cyclohexane | Solubility, n-Butyl benzoate | Solubility, Toluene |
| --- | --- | --- | --- | --- | --- |
| c1ccc(-c2c(-c3ccccc3)c(-c3ccccc3)c(-c3cc[c]([Ir]([c]4ccc(-c5c(-c6ccccc6)c(-c6ccccc6)c(-c6ccccc6)c(-c6ccccc6)c5-c5ccccc5)cc4-c4ccccn4)[c]4ccc(-c5c(-c6ccccc6)c(-c6ccccc6)c(-c6ccccc6)c(-c6ccccc6)c5-c5ccccc5)cc4-c4ccccn4)c(-c4ccccn4)c3)c(-c3ccccc3)c2-c2ccccc2)cc1 [Ir(500)] | >150 mg/mL | >70 mg/mL | >5 mg/mL | >80 mg/mL | >100 mg/mL |
| c1ccc(-c2c(-c3ccccc3)c(-c3ccccc3)c(-c3ccc(-c4cc(-c5ccccn5)[c]5cc4-c4ccccc4-c4cc6cc(c4)-c4ccccc4-c4c[c](c(-c7ccccn7)cc4-c4ccc(-c7c(-c8ccccc8)c(-c8ccccc8)c(-c8ccccc8)c(-c8ccccc8)c7-c7ccccc7)cc4)[Ir]5[c]4cc(c(-c5ccc(-c7c(-c8ccccc8)c(-c8ccccc8)c(-c8ccccc8)c(-c8ccccc8)c7-c7ccccc7)cc5)cc4-c4ccccn4)-c4ccccc4-6)cc3)c(-c3ccccc3)c2-c2ccccc2)cc1 [Ir(530)] | >150 mg/mL | >70 mg/mL | >5 mg/mL | >80 mg/mL | >100 mg/mL |
